Assay results published in patent publication US4874751A, “Antibacterial treatment” (priority 1985, dated 1989).

Experiments:
[1] = LD50 in mice
[2] = LD50 in rats

Cc1cn([C@H]2C[C@H](N=[N+]=[N-])[C@@H](CO)O2)c(=O)[nH]c1=O
LD50 [1]: greater than 750 mg/kg
LD50 [2]: greater than 750 mg/kg
